The values that follow come from paper PMC4234445 (ACS Medicinal Chemistry Letters, 2014).

Molecules are shown by their SMILES. “Also recorded” adds a separate entry of the source.

The test system of series [1] is phosphorylated STAT5 (Y694). As to the kind of experiment: Western blot of phosphorylated STAT5. In kind it is cell-based, human. Particulars: K562 cells, 5 h treatment.
For a further series, the system named is K562 cells. Description: Western blot of apoptosis markers. Particulars: 24 h, 15 μM. The format is cell-based, human. In general terms: A western blot detects proteins with antibodies after separation by electrophoresis.
Series [2] deals with healthy human CD34+ umbilical cord cells. As to the kind of experiment: Cell viability in healthy human CD34+ umbilical cord cells. The format is cell-based.
A further series has as its system MYC. As to the kind of experiment: Western blot of STAT5 transcriptional target MYC in K562 cells. In kind it is cell-based, human. Particulars: 5 h.
A further series concerns pSTAT3. As to the kind of experiment: Western blot of pSTAT3 in MDA-MB-231 cells. In kind it is cell-based.
For another series, the system named is MV-4;11 (FLT3-ITD) cells. Description: CellTiter-Blue cell viability assay in MV-4. The format is cell-based, human. Background: Resazurin is reduced to fluorescent resorufin, in cell work by metabolically active cells.
A further series deals with JAK1/2, ABL, and FLT-3. Description: DiscoveRx KINOMEscan, upstream STAT5 activating kinases. Particulars: 5 μM. The format is binding.
In the next series the test system is MCL-1. As to the kind of experiment: Western blot of STAT5 transcriptional target MCL-1 in K562 cells. In kind it is cell-based, human. Particulars: 24 h, 15 μM.

As usually defined, the IC50 is the concentration needed to halve the response being measured.

On to `CC(C)(C)c1cc(CN(C(=O)CN(Cc2ccc(Cl)cc2)S(=O)(=O)c2c(F)c(F)c(F)c(F)c2F)c2ccc(C(=O)O)c(O)c2)cc(C(C)(C)C)c1` [13a], for which, in series [1], the “concentration at which pSTAT5 is ablated” value is “above 10 μM” and the “pSTAT5 (Y694) levels” value is given as “decreased pSTAT5 in a dose dependent manner”. Besides, the “cell death / apoptosis (cleaved PARP-1, Caspase-3)” value with K562 cells was “undergo cell death; also recorded: Initiation of apoptosis”. The “difference in sensitivity CD34+ vs MV4-11 (therapeutic window)” value in series [2] was “approximate order of magnitude”. The “cell viability of healthy CD34+ cells” value in series [2] (10 μM) is given as “little reduction in cell viability; also recorded: limited effect on cell viability”. Also, the “MYC (c-Myc) expression” value in the series on MYC is “dose-dependent decreases; also recorded: Knockdown”. Moreover, in the series on pSTAT3 (MDA-MB-231, doses corresponding to pSTAT5 inhibition in leukemic cell line), the pSTAT3 inhibition result is “not inhibited”. In addition, the “effect on pSTAT3” value with pSTAT3 (MDA-MB-231 cells, up to 20 μM) was “no effect”. Further, the “cell viability of MV4-11 cells” value in the series with MV-4;11 (FLT3-ITD) cells (10 μM) is reported as “abolished”. In addition, the IC50 in the series with MV-4;11 (FLT3-ITD) cells (Homo sapiens, MV4-11, 72 h, read-out: IC50, cell viability MV4;11) turned out to be 3.5 µM. For the same compound, the “effect against upstream STAT5 activating kinases JAK1/2, ABL, FLT-3” value in the series on JAK1/2, ABL, and FLT-3 is “negligible effects”. Also, the MCL-1 expression entry in the series on MCL-1 is “complete knockdown”.
